Read-outs that look alike come from different tables or passages of the source.
Columns and labels:
Type in all cases: in vivo
[1] = system: galium (catchweed bedstraw, Galium aparine); experiment: Test D pre-/postemergence plant response; details: Galium, pre-emergence; Preemergence; 62 g ai/ha; scale 0 to 100 (0 no effect, 100 complete control); read-out: Plant response rating, Galium
Description: (§1) Seeds of plant species selected from blackgrass (Alopecurus myosuroides), Italian ryegrass (Lolium multiflorum), winter wheat (Triticum aestivum), galium (catchweed bedstraw, Galium aparine), corn (Zea mays), large (Lg) crabgrass (Digitaria sanguinalis), giant foxtail (Setaria faberii), johnsongrass (Sorghum halepense), lambsquarters (Chenopodium album), morningglory (Ipomoea coccinea), yellow nutsedge (Cyperus esculentus), pigweed (Amaranthus retroflexus), ragweed (common ragweed, Ambrosia elatior), soybean (Glycine max), bamyardgrass (Echinochloa crus-galli), oilseed rape (Brassica napus), waterhemp (common waterhemp, Amaranthus rudis), and velvetleaf (Abutilon theophrasti) were planted into a blend of loam soil and sand and treated preemergence with test chemicals formulated in a non-phytotoxic solvent mixture which included a surfactant. At the same time, plants selected from these crop and weed species and also kochia (Kochia scoparia), wild oat (Avena fatua), and chickweed (common chickweed, Stellaria media) were planted in pots containing Redi-Earth® planting medium (Scotts Company, 14111 Scottslawn Road, Marysville, Ohio 43041) comprising spaghnum peat moss, vermiculite, wetting agent and starter nutrients and treated with postemergence applications of test chemicals formulated in the same manner. Plants ranged in height from 2 to 18 cm (1- to 4-leaf stage) for postemergence treatments. Treated plants and controls were maintained in a greenhouse for 13 to 15 days, after which time all species were compared to controls and visually evaluated. Plant response ratings, summarized in Table D, are based on a scale of 0 to 100 where 0 is no effect and 100 is complete control. A dash (-) response means no test result.

[2] = system: ragweed (common ragweed, Ambrosia elatior); experiment: Test D pre-/postemergence plant response; details: Ambrosia artemisiifolia; for pest or weed control at 31 g/ha: 31 g ai/ha; for pest or weed control at 62 g/ha: 62 g ai/ha; for pest or weed control at 125 g/ha: 125 g ai/ha
Description: as §1

[3] = system: winter wheat (Triticum aestivum); experiment: Test D pre-/postemergence plant response; details: Triticum aestivum; for plant injury at 31 g/ha: 31 g ai/ha; for plant injury at 62 g/ha: 62 g ai/ha; for plant injury at 125 g/ha: 125 g ai/ha
Description: as §1

[4] = system: wheat (Triticum aestivum); experiment: Test B pre-/postemergence plant response; details: Triticum aestivum, post-emergence, 240 h, read-out: Plant response rating, Wheat
Method in brief: (§2)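 Greenhouse pots, loam/sand soil; compound formulated with surfactant in non-phytotoxic solvent. Preemergence soil spray and postemergence spray at 1–2 leaf stage run simultaneously. Visual injury, 0–100, about 10 days post-treatment.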

[5] = system: pigweed (Amaranthus retroflexus); experiment: Test B pre-/postemergence plant response; details: for pest or weed control at 500 g/ha: 500 g ai/ha
Method in brief: as §2

corn (Zea mays) = experiment: Test B pre-/postemergence plant response; details: Zea mays, post-emergence, 240 h
Method in brief: as §2

[6] = system: barnyardgrass (Echinochloa crus-galli); experiment: Test B pre-/postemergence plant response; details: for pest or weed control at 500 g/ha: 500 g ai/ha
Method in brief: as §2

[7] = system: giant foxtail (Setaria faberii); experiment: Test B pre-/postemergence plant response; details: for pest or weed control at 500 g/ha: 500 g ai/ha
Method in brief: as §2

[8] = post-emergence, Postemergence, scale 0 to 100, 0 no effect, 100 complete control, read-out: Plant response rating, Ragweed
[9] = pre-emergence, Preemergence, scale 0 to 100 (0 no effect, 100 complete control), read-out: Plant response rating, Ragweed
[10] = post-emergence, Postemergence, scale 0 to 100, 0 no effect, 100 complete control, read-out: Plant response rating, Wheat
[11] = pre-emergence, Preemergence, scale 0 to 100 (0 no effect, 100 complete control), read-out: Plant response rating, Wheat
[12] = 125 g ai/ha, postemergence, 0 to 100 scale, 0 no effect, 100 complete control
[13] = Postemergence, 500 g ai/ha, 0 to 100 scale (0 no effect, 100 complete control)
[14] = Preemergence, 125 g ai/ha, 0 to 100 scale (0 no effect, 100 complete control)

Compound `Fc1cccc(Oc2ncc(Cl)cn2)c1-c1cc(C(F)(F)F)on1` [Compound 168, 5-chloro-2-[2-[5-(trifluoromethyl)-3-isoxazolyl]-3-fluorophenoxy]pyrimidine] has a pest or weed control at 62 g/ha [1] of 100%, a pest or weed control at 31 g/ha ([2]; post-emergence, Postemergence, scale 0 to 100 (0 no effect, 100 complete control), read-out: Ragweed plant response rating) of 50% and a pest or weed control at 62 g/ha [2, 8] of 55%. The pest or weed control at 125 g/ha [2, 8] was 55%, the pest or weed control at 125 g/ha ([2]; pre-emergence, Preemergence, read-out: Plant response rating (scale 0 to 100), Ragweed) was 100% and the pest or weed control at 16 g/ha ([2]; pre-emergence, Preemergence, 16 g ai/ha, scale 0 to 100 (0 no effect, 100 complete control), read-out: Plant response rating, Ragweed) was 35%. The pest or weed control at 31 g/ha [2, 9] was 45%, the pest or weed control at 62 g/ha [2, 9] was 100% and the plant injury at 31 g/ha ([3]; post-emergence, Postemergence, scale 0 to 100 (0 no effect, 100 complete control), read-out: Wheat plant response rating) was 10%. The plant injury at 62 g/ha [3, 10] was 30%, the plant injury at 125 g/ha [3, 10] was 35% and the plant injury at 125 g/ha ([3]; pre-emergence, Preemergence, read-out: Plant response rating (scale 0 to 100), Wheat) was 85%. It also gave a plant injury at 16 g/ha ([3]; pre-emergence, Preemergence, 16 g ai/ha, scale 0 to 100 (0 no effect, 100 complete control), read-out: Plant response rating, Wheat) of 0%, a plant injury at 31 g/ha [3, 11] of 5% and a plant injury at 62 g/ha [3, 11] of 45%. For the same compound, the plant injury at 125 g/ha [4, 12] was 100%, the plant injury at 500 g/ha [4, 13] was 100% and the pest or weed control at 125 g/ha ([5]; Amaranthus retroflexus, post-emergence, 240 h, 125 g ai/ha, postemergence, 0 to 100 scale, 0 no effect, 100 complete control, read-out: Plant response rating, Pigweed) was 100%. The pest or weed control at 500 g/ha ([5]; Amaranthus retroflexus, post-emergence, 240 h, Postemergence, 0 to 100 scale (0 no effect, 100 complete control), read-out: Plant response rating, Pigweed) was 100%, the pest or weed control at 500 g/ha ([5]; Amaranthus retroflexus, pre-emergence, 240 h, Preemergence, 0 to 100 scale where 0 is no effect and 100 is complete control, read-out: Plant response rating, Pigweed) was 100% and the “Pigweed plant response rating” value [5, 14] was 100. It also gave a Corn plant response rating (crop injury, 0 = no effect, 100 = complete kill) at 125 g/ha (corn (Zea mays); [12]) of 100%, a Corn plant response rating (crop injury, 0 = no effect, 100 = complete kill) at 500 g/ha (corn (Zea mays); [13]) of 100% and a pest or weed control at 125 g/ha ([6]; Echinochloa crus-galli, post-emergence, 240 h, 125 g ai/ha, postemergence, 0 to 100 scale, 0 no effect, 100 complete control, read-out: Plant response rating, Barnyardgrass) of 100%. The pest or weed control at 500 g/ha ([6]; Echinochloa crus-galli, post-emergence, 240 h, Postemergence, 0 to 100 scale (0 no effect, 100 complete control), read-out: Plant response rating, Barnyardgrass) was 100%, the pest or weed control at 500 g/ha ([6]; Echinochloa crus-galli, pre-emergence, 240 h, Preemergence, 0 to 100 scale where 0 is no effect and 100 is complete control, read-out: Plant response rating, Barnyardgrass) was 100% and the “Barnyardgrass plant response rating” value [6, 14] was 100. The “Foxtail, Giant plant response rating” value [7, 14] was 100, the pest or weed control at 125 g/ha ([7]; Setaria faberi, post-emergence, 240 h, 125 g ai/ha, postemergence, 0 to 100 scale, 0 no effect, 100 complete control, read-out: Plant response rating, Foxtail, Giant) was 100% and the pest or weed control at 500 g/ha ([7]; Setaria faberi, post-emergence, 240 h, Postemergence, 0 to 100 scale (0 no effect, 100 complete control), read-out: Plant response rating, Foxtail, Giant) was 100%. For the same compound, the pest or weed control at 500 g/ha ([7]; Setaria faberi, pre-emergence, 240 h, Preemergence, 0 to 100 scale where 0 is no effect and 100 is complete control, read-out: Plant response rating, Foxtail, Giant) was 100%.

Reference: patent US10131652B2, “Pyrimidinyloxy benzene derivatives as herbicides” (E. I. DU PONT DE NEMOURS AND COMPANY, priority 2014, dated 2018)
